# Source: article PMC5555576, “Selective small-chemical inhibitors of protein arginine methyltransferase 5 with anti-lung cancer activity” (PLoS ONE, 2017)
# Several values for one entry are separate records, joined by “and”; a condition that tells them apart may be missing. Equal values may be shown once. Read-outs that look alike come from different tables or passages of the source.
# Tests used:
# [1] = molecular target: T1, PRMT5 F225M (Homo sapiens, UniProt O14744, F327M); assay: Radioactive methyltransferase assay, mutant PRMT5; format: biochemical; conditions: F225M mutant PRMT5, SmD3 substrate, Fig 4D
# T1 construct: His6; made in house; host or cells: bacteria (E. coli BL21(ED3) for the wild type)
# Description: (§1) Methylation reactions were performed as previously described with a few modifications. Reaction mixtures (40 μl) containing 1.2 μg of PRMT5, 98 ng of PRMT1 or 98 ng of PRMT3; 2 μg of SmD3 or histones; 1 μCi of S-[methyl-^3H]adenosylmethionine (H^3-AdoMet; PerkinElmer); and 5 μM AdoMet were incubated in 50 mM Tris-HCl (pH 7.5)–1 mM EGTA–1 mM EDTA at 30°C for 2 h. Reaction mixtures (20 μl) were boiled in 5 μl of 5x SDS sample buffer and separated on a 15% polyacrylamide gel. Gels were fixed for 30 min in 40% methanol–10% acetic acid, incubated in 20 ml of Amplify (Amersham Life Science) for 10 min, dried and exposed to X-ray film at -80°C. IC50 was calculated by linear regression analysis of percent inhibition. The other half (20 μl) of each reaction mixture was spread onto DE81 chromatography paper discs (Whatman). The paper discs were washed 4 times with 50 mM NaHCO3 and dried. The amounts of methylated products were quantified by liquid scintillation.
# The inhibitory activity of the compounds may stem from this interaction. To test this possibility, we conducted site-directed mutagenesis to mutate Phe225 in human PRMT5 (corresponding to Phe379 in the C. elegans PRMT5) to Met. The mutated PRMT5 was expressed in bacteria and purified by Ni-nitrilotriacetic acid (Ni-NTA) affinity chromatography (Fig 4A). The activity of the mutant PRMT5 was examined by the radioactive methyltransferase assay. […] The IC50 values for the mutant PRMT5 increased from 4.3 to 183 folds higher than those for the wild type PRMT5 (Fig 4D). […] The results also can help explain the specificity of the compounds to PRMT5. However, the contribution of this interaction to inhibition varies among the compounds. For example, compound C2 interacts with three amino acid residues (Lys451, Glu450, and Phe379) (Fig 3A) with the mutation of Phe to Met resulting in a 50-times higher IC50 (Fig 4C and 4D).
# Fig 4 The conserved phenylalanine residue in PRMT5 is critical for inhibition by the five compounds. A, DS-PAGE of recombinant wild type (WT) and F225M mutant (MT) PRMT5. The gel was stained with Coomassie Brilliant Blue R250. A band corresponding to an unknown bacterial protein is indicated (star). B, The F225M mutation increased the methytransferase activity of PRMT5. In vitro methylation reactions were performed with recombinant wild type (lanes 2–4) or mutant (lanes 5–7) PRMT5 (1.2, 2.4 or 4.8 μg) and SmD3 (2 μg) as the substrate. C, The F225M mutation in PRMT5 decreased inhibition of arginine methylation by the compounds. The reaction mixture contained SmD3 (2 μg); wild type or mutant PRMT5 (1.2 μg); and 1, 10 or 100 μM compounds as indicated. D, The F225M mutation in PRMT5 […] of the compounds, as determined by quantitation and analysis of methylation assay results. TEXT PRINTED IN THE PICTURE: (D) C2: IC50 (μM) PRMT5: 0.1; IC50 (μM) PRMT5 F225M: 5.0 | (D) C5: IC50 (μM) PRMT5: 0.8; IC50 (μM) PRMT5 F225M: 3.5 | (D) C6: IC50 (μM) PRMT5: 0.5; IC50 (μM) PRMT5 F225M: 7.0 | (D) C9: IC50 (μM) PRMT5: 6.0; IC50 (μM) PRMT5 F225M: 45.0 | (D) C11: IC50 (μM) PRMT5: 0.3; IC50 (μM) PRMT5 F225M: 55.0
# [2] = molecular target: T2, PRMT5 (Homo sapiens, UniProt O14744); assay: Radioactive methyltransferase assay, PRMT5; format: biochemical
# T2 construct: His6; made in house; host or cells: E. coli BL21(ED3) [sic]
# Description: as §1
# In vitro methylation reactions were performed with recombinant PRMT5 (1.2 μg), PRMT1 ([…]) or PRMT3 (89 ng); [H^3]-AdoMet; and different substrates in the presence of identified compounds. […] The recombinant SmD3 (2 μg) was used as the substrate in the absence (lane 2) or presence of 1, 10 or 100 μM compounds as indicated. Reaction mixtures were separated on an SDS–15% polyacrylamide gel and the gel was dried under vacuum and exposed to film. […] Recombinant histones H4 or H2A (1 μg) were used as substrates of PRMT5 in the methylation assay in the absence or presence of 100 μM compounds as indicated. Reaction mixtures were spread onto DE81 chromatography paper discs. After a wash, the amounts of methylated products on discs were quantified by liquid scintillation. […] PRMT1 was incubated with purified histones (1 μg) or recombinant E2F1 (1 μg) as substrates in the absence (lane 2) or presence of 100 μM compounds as indicated. Reaction mixtures were separated on an SDS–15% polyacrylamide gel and the gel was dried and exposed to film.
# [3] = test system: A549 cells; assay: Cell cycle distribution by flow cytometry; format: cell-based; conditions: 20 μM, 2 days
# Description: Supplementary file pone.0181601.s002.tif: S2 Fig Identified compounds arrested cell cycle at the G1 phase. A549 cells were infected with the lentivirus expressing non-target (NT) or PRMT5 shRNA as described previously by us. A549 cells were grown in the presence of DMSO or 20 μM of the compound C5, C9 or C11 for 2 days. A, PRMT5 protein levels in A549 cells. Whole cell lysates were prepared and submitted for Western blot analysis with anti-PRMT5 (top) or anti-actin (bottom) antibody. B, Cell cycle distributions. Cells were harvested, washed with phosphate-buffered saline (PBS) and fixed in 70% ethanol at 4 °C overnight. Cells were collected and stained with propidium iodide (PI). The cell-cycle distributions were determined by flow cytometry analysis (BD Accuri^TM C6 Flow Cyometer). (TIF) Click here for additional data file.
# [4] = methylation of SmD3 by PRMT5, Table 1 prints no unit, μM, read-out: IC50
# T1 sequence (O14744 whole entry F327M): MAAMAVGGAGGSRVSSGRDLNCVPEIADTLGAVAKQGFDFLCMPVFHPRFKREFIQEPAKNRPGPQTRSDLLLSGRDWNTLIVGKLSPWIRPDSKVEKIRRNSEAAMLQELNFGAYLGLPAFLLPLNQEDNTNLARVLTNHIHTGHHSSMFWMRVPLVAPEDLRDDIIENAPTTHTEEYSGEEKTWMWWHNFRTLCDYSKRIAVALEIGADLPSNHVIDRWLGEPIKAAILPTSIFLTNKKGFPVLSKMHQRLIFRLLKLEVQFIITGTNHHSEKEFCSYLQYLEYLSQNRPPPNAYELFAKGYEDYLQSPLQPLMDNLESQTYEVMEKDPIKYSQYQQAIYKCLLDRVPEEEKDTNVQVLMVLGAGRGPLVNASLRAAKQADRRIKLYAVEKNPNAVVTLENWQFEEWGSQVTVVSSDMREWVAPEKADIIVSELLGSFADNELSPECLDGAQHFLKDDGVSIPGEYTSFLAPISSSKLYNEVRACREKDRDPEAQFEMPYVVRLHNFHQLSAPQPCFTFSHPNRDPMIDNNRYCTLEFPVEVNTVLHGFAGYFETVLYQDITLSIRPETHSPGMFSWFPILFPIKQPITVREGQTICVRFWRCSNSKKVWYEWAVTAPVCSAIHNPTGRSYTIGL
# T2 sequence (O14744 whole entry): as the sequence (O14744 whole entry F327M) above, with M327F counted along it
IC50 [1],"IC50 [2, 4]","IC50 ([2]; wild type PRMT5, SmD3 substrate, Fig 4D, read-out: IC50 (μM) PRMT5)","inhibition of PRMT5 activity compared to C9 ([2]; SmD3 substrate, 1, 10 or 100 μM)",SMILES,cell cycle effect [3]
3.5 µM,0.75 µM,0.8 µM,–,CCn1c(=O)[nH]c2cc(C(=O)Nc3ccc(OC)cc3)ccc2c1=O [Compound C5],arrested the cell cycle at the G1 phase
–,0.7 µM,–,higher efficacy,Nc1cccc(Nc2ncnc3c2cnn3Cc2ccccc2)c1 [Compound C9a],–
55 µM,0.3 µM,–,–,Cn1cc(C(c2ccc(O)c(O)c2O)c2cn(C)c3ccccc23)c2ccccc21 [Compound C11],arrested the cell cycle at the G1 phase

SMILES,IC50 [1],"IC50 [2, 4]","IC50 ([2]; wild type PRMT5, SmD3 substrate, Fig 4D, read-out: IC50 (μM) PRMT5)","inhibition of PRMT5 activity compared to C9 ([2]; SmD3 substrate, 1, 10 or 100 μM)",cell cycle effect [3]
COc1ccc(Nc2ncnc3c2cnn3Cc2ccc(C)cc2)cc1 [Compound C9],45 µM,~6 µM and 6 µM,–,–,arrested the cell cycle at the G1 phase
